The values below come from patent publication US20060052751A1, “Fast perfusion cell chamber” (priority 2004, published 2006).

This test deals with GABA transporter isoform GAT4. Briefly: GABA concentration jump, two-electrode voltage clamp in Xenopus laevis oocyte in fast perfusion chamber. It counts as cell-based. As to conditions: oocyte expressing GAT4, N=6. The text has this: The usefulness of the Xenopus oocyte expression system for a variety of electrogenic membrane proteins has driven us to invent a novel rapid perfusion method which allows fast (≦20 ms) solution changes around intact, voltage-clamped Xenopus laevis oocytes (FIGS. 1-4). The present invention permits rapid solution changes to be made about voltage-clamped Xenopus laevis oocytes, while preserving the integrity of the cellular membrane. Defolliculated oocytes (intact vitelline membrane) and conventional two-electrode voltage clamp are used. For fast perfusion, the oocyte is placed in-line with the flow of buffer. The oocyte is supported primarily by an oocyte support base (6) equipped with oocyte support prongs (12), which prevent cellular movement. The current and voltage electrodes (4, 5) (for electrophysiological measurements) provide some support. Buffer flows from above the oocyte in a vertical direction (driven by gravity), at adjustable rates ranging from 1-50 ml/min. Healthy oocytes withstand maximal flow rates due to the chamber's support mechanisms.
In the absence of oocyte in the chamber, the fluid exchange rate at the recording electrodes is ≈3 ms at maximal buffer flow rates (FIG. 5), the fastest solution change rate ever reported for Xenopus laevis oocytes. The exchange rate with oocyte in place is more difficult to determine due to the highly invaginated surface of the cell (i.e., microvilli), but is estimated to be no more than ≈20 ms. The geometry of the oocyte, microvilli in the oocyte plasma membrane, as well as the oocyte vitelline membrane most likely contribute to this slowing effect. […] A number of features of the system have been examined with oocytes expressing the human γ-aminobutyric acid transporter protein and compared with results obtained from traditional methods (FIGS. 6 and 7). This system permits examination of ligand interaction with electrogenic membrane proteins, a proposition which has heretofore been unattainable. The system also allows for rapid determination of kinetic parameters for drugs of interest.
FIGS. 6A and 6B show a representative γ-aminobutyric acid (GABA) concentration jump in an oocyte expressing the GABA transporter isoform GAT4. The membrane potential (Vm) was held at −50 mV and the GABA concentration was 0.5 mM. […] This rapid transient induced by a concentration jump represents the fastest ever reported with the two-electrode voltage clamp for any membrane protein expressed in the Xenopus laevis oocyte expression system. […] The steady-state current represents steady-state Na^+/Cl^−/GABA cotransport into the cell. Only the steady-state current is observed in conventional two-electrode voltage clamp records (not shown). The rapid transient represents fast GABA-evoked electrogenic transitions. […] Referring to FIG. 6B, if GABA and Na^+ are simultaneously introduced, the rapid transient phase is absent and the evoked current follows a monoexponential behavior (τ=602±98 ms; N=6). […] Because these events are very fast events, these measurements would not have been possible without the present invention. Thus, our perfusion chamber allows the acquisition of novel information from electrogenic membrane transport proteins expressed in oocytes.
In general terms: Two-electrode voltage clamp holds a large cell at a set potential and records current.

For `NCCCC(=O)O` [GABA, γ-aminobutyric acid], the “time constant (τ) of monoexponential evoked current” value (GABA and Na+ simultaneously introduced, rapid transient phase absent) is 602 ± 98 ms. Further, for the setting “Vm -50 mV, GABA 0.5 mM”, the “time constant of decay of rapid transient phase of GABA-evoked current” value was found to be 15 ± 2 ms, the “time constant of mono-exponential decay of GABA-evoked current back to baseline upon rapid removal of GABA” value was found to be 4.0 ± 0.6 s, the “time constant of mono-exponential decay of slow transient phase to steady-state” value came out at 1.3 ± 0.1 s and the “time-to-peak of rapid transient phase of GABA-evoked inward current” value was determined as 20 ± 5 ms.
